# Test results as given in US9708368B2, “Linear peptide antibiotics” (priority 2012, dated 2017).
# Where two headings read alike, the source gives them in different places. Square brackets hold non-standard residues; d marks the D form. Peptide text beside a SMILES is read from it. * marks the point of attachment. ξ: configuration not given here. boroAla((+)-pinanediol) = C[C@H](N*)B1O[C@@H]2C[C@@H]3C[C@@H](C3(C)C)[C@]2(C)O1; Biphenylcarbonyl(4'-Bu) = CCCCc1ccc(-c2ccc(C(=O)*)cc2)cc1; X1 = C[C@H](N*)B1OC2C[C@@H]3C[C@@H](C3(C)C)[C@]2(C)O1; Benzoyl(4-hexyl) = CCCCCCc1ccc(C(=O)*)cc1; X17 = O=C(/C=C/C=C/C12CC3CC(CC(C3)C1)C2)*; Dopa = N[C@@H](Cc1ccc(O)c(O)c1)C(=O)O; NMeThr(3ξ) = CN[C@H](C(=O)O)C(C)O; Myristoyl = CCCCCCCCCCCCCC(=O)*; NMeE = CN[C@@H](CCC(=O)O)C(=O)O; Thr(3ξ) = CC(O)[C@H](N)C(=O)O; NMeK = CN[C@@H](CCCCN)C(=O)O; Decanoyl = CCCCCCCCCC(=O)*; boroAla = C[C@H](N*)B(O)O; Dab = NCC[C@H](N)C(=O)O; Abu = CC[C@H](N)C(=O)O; boroGly = OB(O)CN*; βAla = NCCC(=O)O; ξA = CC(N)C(=O)O
# Columns and labels:
# [1] = system: Methicillin Resistant Staphylococcus aureus strain USA 300 (NRS384)
# Protocol: (§1) In vitro antimicrobial activity of each compound was determined by measuring minimal inhibitor concentrations (MICs) using the broth micro-dilution technique as approved by the Clinical and Laboratory Standards Institute (CLSI). […] Cells were inoculated onto Trypyticase Soy Agar or Luria Agar containing 16 ng/ml of anhydrotetracycline respectively and grown at 35° C. for 20 hours. Inocula suspensions were made by scraping cells into 1 mL of testing media (cation adjusted Mueller Hinton Broth supplemented with 0.002% v/v Tween-80) and diluting to a final OD600 nm of 0.01.
# (§2) Test compounds were prepared in DMSO at a concentration of 10 mg/ml. […] Inocula suspensions were added to the two fold serial dilutions of test compounds to a final density of OD OD600 nm of 0.0005 and incubated stationary at 35° C. for 22 hours, after which the plates were examined visually.
# [2] = system: Escherichia coli MC4100 IMP-4213 in which transcription of the SPase encoding gene is under control of a tetracycline inducible promoter; settings: Method A; E. coli MC4100 IMP-4213 with decreased SPase expression; 35° C., 22 hours
# Protocol: as §1, §2
# S. aureus SPase = S. aureus SPase (Staphylococcus aureus, UniProt P0A070); test: biochemical
# E. coli SPase = E. coli SPase (Escherichia coli, UniProt P00803); test: Biochemical SPase activity assay (fluorogenic peptide substrate), E. coli enzyme
# [3] = system: Escherichia coli strain MC4100 IMP-4213, which harbors an LptD mutation; settings: Method B; E. coli MC4100 IMP-4213 (LptD mutation); 35° C., 22 hours
# Summary of the method: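 Two-fold serial dilutions of compound inoculated at final OD600 0.0005, incubated static at 35 °C for 22 h, and growth read visually.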
# [4] = system: methicillin resistant Staphylococcus aureus (MRSA) strain USA300 (NRS384); settings: Method B, 35° C., 22 hours
# [5] = Method A, MRSA USA 300 (NRS384), 35° C., 22 hours
# Sequence of E. coli SPase (P00803 whole entry): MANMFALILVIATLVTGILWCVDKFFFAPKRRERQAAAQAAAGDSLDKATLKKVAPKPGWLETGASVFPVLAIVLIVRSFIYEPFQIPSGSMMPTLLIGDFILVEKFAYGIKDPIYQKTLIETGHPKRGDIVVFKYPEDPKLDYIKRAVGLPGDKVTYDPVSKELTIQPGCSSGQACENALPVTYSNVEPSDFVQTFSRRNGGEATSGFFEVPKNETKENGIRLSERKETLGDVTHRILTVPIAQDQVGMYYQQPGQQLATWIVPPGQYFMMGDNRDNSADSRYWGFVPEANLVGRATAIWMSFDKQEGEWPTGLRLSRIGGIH
# Sequence of S. aureus SPase (P0A070 whole entry): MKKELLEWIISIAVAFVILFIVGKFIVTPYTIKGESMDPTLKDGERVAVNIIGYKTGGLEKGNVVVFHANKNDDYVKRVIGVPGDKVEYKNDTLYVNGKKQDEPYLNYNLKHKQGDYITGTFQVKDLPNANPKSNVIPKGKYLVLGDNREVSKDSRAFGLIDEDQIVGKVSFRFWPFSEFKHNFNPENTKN
Structure (SMILES),"MIC (μg/mL) S. aureus [1, 5]",MIC (μg/mL) E. coli [2],IC50 (S. aureus SPase),IC50 (E. coli SPase),"MIC (μg/mL) S. aureus ([1]; USA 300, 22 h)",MIC (μg/mL) E. coli [3],MIC (μg/mL) S. aureus [4]
CCCCCCCCCC(=O)N[C@@H](CC(C)C)C(=O)N[C@H](C(=O)N1CCC[C@@H]1C(=O)N[C@H](C(=O)N[C@@H](C)C(=O)N[C@@H](Cc1ccc(O)cc1)C(=O)NC(C)C=O)C(C)O)C(C)O (stereo partly drawn) [Compound 109] (Decanoyl-L[Thr(3ξ)][dP][Thr(3ξ)]AY[ξA]-aldehyde),>64 µg/mL,>64 µg/mL,4900 nM,,,,
CCCCc1ccc(-c2ccc(C(=O)N[C@H](CO)C(=O)N[C@H](C)C(=O)NCC(=O)N(C)[C@@H](CCCCN)C(=O)N[C@@H](C)C(=O)N[C@@H](CC(N)=O)C(=O)NCB(O)O)cc2)cc1 [Compound 120] ({Biphenylcarbonyl(4'-Bu)}-[dS][dA]G[NMeK]AN-boroGly),>64 µg/mL,32 µg/mL,100 nM,1600 nM,,,
CCCCCCCCCCCCCC(=O)N[C@@H](CC(C)C)C(=O)N[C@H](C(=O)N1CCC[C@@H]1C(=O)N[C@H](C(=O)N[C@@H](C)C(=O)N[C@@H](Cc1ccc(O)cc1)C(=O)NCC=O)C(C)O)C(C)O (stereo partly drawn) [Compound 105] (Myristoyl-L[Thr(3ξ)][dP][Thr(3ξ)]AYG-aldehyde),>64 µg/mL,>64 µg/mL,,,,,
CCCCCCc1ccc(C(=O)N[C@H](CO)C(=O)N[C@H](C)C(=O)NCC(=O)N(C)[C@H](C(=O)N[C@@H](C)C(=O)N[C@@H](CC(N)=O)C(=O)NCB(O)O)C(C)O)cc1 (stereo partly drawn) [Compound 124] ({Benzoyl(4-hexyl)}-[dS][dA]G[NMeThr(3ξ)]AN-boroGly),>64 µg/mL,>64 µg/mL,83 nM,810 nM,,,
CCCCCCCCCCCCCC(=O)N[C@H](CO)C(=O)N[C@H](C)C(=O)NCC(=O)N(C)[C@H](C(=O)N[C@@H](C)C(=O)N[C@@H](CC(C)C)C(=O)NCC=O)C(C)O (stereo partly drawn) [Compound 104] (Myristoyl-[dS][dA]G[NMeThr(3ξ)]ALG-aldehyde),8 µg/mL,,18 nM,8900 nM,,,
CCCCCCCCCCCCCC(=O)N[C@@H](CC(C)C)C(=O)N[C@H](C(=O)N1CCC[C@@H]1C(=O)N[C@H](C(=O)N[C@@H](C)C(=O)N[C@@H](Cc1ccc(O)cc1)C(=O)NC(C)C(=O)C(=O)NC)C(C)O)C(C)O (mixture of isomers) [Compound 112],>64 µg/mL,>64 µg/mL,3400 nM,31000 nM,,,
CCCCc1ccc(-c2ccc(C(=O)N[C@H](CO)C(=O)N[C@H](C)C(=O)NCC(=O)N(C)[C@@H](CCC(=O)O)C(=O)N[C@@H](C)C(=O)N[C@@H](CC(N)=O)C(=O)NCB(O)O)cc2)cc1 [Compound 119] ({Biphenylcarbonyl(4'-Bu)}-[dS][dA]G[NMeE]AN-boroGly),>64 µg/mL,>64 µg/mL,59 nM,290 nM,,,
CCCCc1ccc(-c2ccc(C(=O)NCCC(=O)N[C@@H](CCCCN)C(=O)N[C@H](C(=O)N[C@@H](C)C(=O)N[C@@H](CC(N)=O)C(=O)NCB(O)O)C(C)O)cc2)cc1 (stereo partly drawn) [Compound 118] ({Biphenylcarbonyl(4'-Bu)-βAla}-K[Thr(3ξ)]AN-boroGly),0.71 µg/mL,11 µg/mL,9.4 nM,1100 nM,,,
CCCCc1ccc(-c2ccc(C(=O)NCCC(=O)N[C@@H](CCCCN)C(=O)N[C@H](C(=O)N[C@@H](C)C(=O)N[C@@H](CC(N)=O)C(=O)N[C@@H](C)B3OC4C[C@@H]5C[C@@H](C5(C)C)[C@]4(C)O3)C(C)O)cc2)cc1 (stereo partly drawn) [Compound 121] ({Biphenylcarbonyl(4'-Bu)-βAla}-K[Thr(3ξ)]AN-X1),0.25 µg/mL,0.5 µg/mL,,,,,
CCCCCCCCCCCCCC(=O)N[C@H](CO)C(=O)N[C@H](C)C(=O)NCC(=O)N(C)[C@H](C(=O)N[C@@H](C)C(=O)N[C@@H](CC(C)C)C(=O)NC(C)C(=O)C(=O)NC)C(C)O (mixture of isomers) [Compound 110],,>64 µg/mL,150 nM,,>64 µg/mL,,
CCCCc1ccc(-c2ccc(C(=O)N[C@@H](CCN)C(=O)N[C@@H](CCN)C(=O)N[C@@H](C)C(=O)N[C@@H](CC)C(=O)N[C@@H](C)B3OC4C[C@@H]5C[C@@H](C5(C)C)[C@]4(C)O3)cc2)cc1 (stereo partly drawn) [Compound 182] ({Biphenylcarbonyl(4'-Bu)}-[Dab][Dab]A[Abu]-X1),,,1100 nM,35 nM,,0.71 µg/mL,4 µg/mL
CCCCc1ccc(-c2ccc(C(=O)N[C@@H](CCN)C(=O)N[C@H](C(=O)N[C@@H](C)C(=O)N[C@@H](CCCCN)C(=O)N[C@@H](C)B(O)O)[C@@H](C)O)cc2)cc1 [Compound 178] ({Biphenylcarbonyl(4'-Bu)}-[Dab]TAK-boroAla),,,58 nM,3.1 nM,,0.25 µg/mL,0.063 µg/mL
CCCCc1ccc(-c2ccc(C(=O)N[C@@H](CCN)C(=O)N[C@@H](CCN)C(=O)N[C@@H](C)C(=O)N[C@@H](CC(C)C)C(=O)N[C@@H](C)B3O[C@@H]4C[C@@H]5C[C@@H](C5(C)C)[C@]4(C)O3)cc2)cc1 [Compound 171] ({Biphenylcarbonyl(4'-Bu)}-[Dab][Dab]AL-{boroAla((+)-pinanediol)}),,,520 nM,27 nM,,0.25 µg/mL,0.71 µg/mL
CCCCc1ccc(-c2ccc(C(=O)N[C@@H](CCCCN)C(=O)NC(C(=O)N[C@@H](C)C(=O)N[C@@H](CCCCN)C(=O)N[C@@H](C)B(O)O)c3ccc(OC)cc3)cc2)cc1 (stereo partly drawn) [Compound 166],,,350 nM,36 nM,,0.5 µg/mL,0.63 µg/mL
CCCCc1ccc(-c2ccc(C(=O)N[C@@H](CCCCN)C(=O)N[C@@H](Cc3c[nH]cn3)C(=O)N[C@@H](C)C(=O)N[C@@H](CC(N)=O)C(=O)N[C@@H](C)B(O)O)cc2)cc1 [Compound 136] ({Biphenylcarbonyl(4'-Bu)}-KHAN-boroAla),,,39 nM,14 nM,,1 µg/mL,1.4 µg/mL
CCCCCCCCCCCCCC(=O)N[C@@H](CC(C)C)C(=O)N[C@H](C(=O)N1CCC[C@@H]1C(=O)N[C@H](C(=O)N[C@@H](C)C(=O)N[C@@H](CC(N)=O)C(=O)NCC=O)C(C)O)C(C)O (stereo partly drawn) [Compound 103] (Myristoyl-L[Thr(3ξ)][dP][Thr(3ξ)]ANG-aldehyde),>64 µg/mL,,110 nM,11000 nM,,,
CCCCc1ccc(-c2ccc(C(=O)N[C@@H](CCCCN)C(=O)N[C@@H](CCN)C(=O)N[C@@H](C)C(=O)N[C@@H](CC(C)C)C(=O)N[C@@H](C)B(O)O)cc2)cc1 [Compound 161] ({Biphenylcarbonyl(4'-Bu)}-K[Dab]AL-boroAla),,,300 nM,60 nM,,0.71 µg/mL,0.63 µg/mL
CCCCc1ccc(-c2ccc(C(=O)N[C@@H](CCN)C(=O)N[C@@H](Cc3ccc(O)c(O)c3)C(=O)N[C@@H](C)C(=O)N[C@@H](CCCCN)C(=O)N[C@@H](C)B3O[C@@H]4C[C@@H]5C[C@@H](C5(C)C)[C@]4(C)O3)cc2)cc1 [Compound 188] ({Biphenylcarbonyl(4'-Bu)}-[Dab][Dopa]AK-{boroAla((+)-pinanediol)}),,,2900 nM,120 nM,,8 µg/mL,16 µg/mL
C[C@H](NC(=O)[C@H](CCCCN)NC(=O)[C@H](C)NC(=O)[C@@H](NC(=O)[C@H](CCN)NC(=O)/C=C/C=C/C12CC3CC(CC(C3)C1)C2)[C@@H](C)O)B1O[C@@H]2C[C@@H]3C[C@@H](C3(C)C)[C@]2(C)O1 [Compound 240] (X17-[Dab]TAK-{boroAla((+)-pinanediol)}),,,88 nM,28 nM,,4 µg/mL,0.71 µg/mL
CCCCc1ccc(-c2ccc(C(=O)N[C@@H](CCC(=O)O)C(=O)N[C@H](C(=O)N[C@@H](C)C(=O)N[C@@H](CCCCN)C(=O)N[C@@H](C)B(O)O)[C@@H](C)O)cc2)cc1 [Compound 163] ({Biphenylcarbonyl(4'-Bu)}-ETAK-boroAla),,,310 nM,240 nM,,>64 µg/mL,4 µg/mL
